Source: publication PMC4920105, “Identification and Development of 2,3-Dihydropyrrolo[1,2-a]quinazolin-5(1H)-one Inhibitors Targeting Bromodomains within the Switch/Sucrose Nonfermenting Complex” (Journal of Medicinal Chemistry, 2016)

Legend:
[1] = biological target: T1, BRPF1B (Homo sapiens, UniProt P55201); experiment: DSF Tm shift assay, BRPF1B; type: binding; conditions: single measurement
T1 construct: Bromodomain DSF Tm assays were performed; made in house
T1 sequence (P55201 628-732 limits assumed): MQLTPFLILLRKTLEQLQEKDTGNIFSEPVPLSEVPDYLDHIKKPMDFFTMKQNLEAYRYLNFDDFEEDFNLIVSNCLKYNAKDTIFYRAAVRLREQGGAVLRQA
Experimental: (§1) Protein Expression and Purification.
(§2) Proteins were cloned, expressed, and purified as previously described.1 […]
(§3) Bromodomain DSF Tm assays were performed using a Mx3005p real-time PCR machine (Agilent) and low profile 96-well PCR plates (AB-0700, Life Technologies). Protein was buffered in 10 mM HEPES, pH 7.5, 500 mM NaCl and assayed at a concentration of 2 µM with 10 µM inhibitor concentration and 1:1000 SyproOrange (Invitrogen). Excitation and emission filters were set to 465 and 590 nm respectively. The temperature was raised by 3 °C per 1 min from 25–95 °C, and fluorescence readers were taken at each interval. Data analysis was carried out as described previously.2
(§4) AlphaScreen Displacement Assay.
(§5) AlphaScreen assays were based on a reported protocol, with minor variations.3 In place of a biotinylated peptide, a biotinylated ligand was used at 25 nM final concentration.
(§6) Isothermal Calorimetry Experiments.
(§7) Calorimetric experiments were performed on a VP-ITC micro-calorimeter (MicroCalTM, LLC Northampton, MA). Protein solutions were buffer exchanged by dialysis into buffer 20 mM Hepes pH 7.5, 150 mM NaCl, and 0.5 mM TCEP. All measurements were carried out at 293.15 K while stirring at 286 rpm. The micro syringe was loaded with protein solutions ranging from […]

[2] = biological target: T2, BRD9A (Homo sapiens, UniProt Q9H8M2); experiment: DSF Tm shift assay, BRD9A; type: binding; conditions: single measurement
T2 construct: Bromodomain DSF Tm assays were performed; made in house
T2 sequence (Q9H8M2 136-240 limits assumed): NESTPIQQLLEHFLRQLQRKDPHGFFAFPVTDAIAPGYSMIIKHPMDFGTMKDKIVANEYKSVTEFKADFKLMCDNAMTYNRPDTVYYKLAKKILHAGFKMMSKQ
Experimental: as §1, §2, §3, §4, §5, §6, §7

[3] = biological target: T3, CECR2A (Homo sapiens, UniProt Q9BXF3); experiment: DSF Tm shift assay, CECR2A; type: binding; conditions: single measurement
T3 construct: Bromodomain DSF Tm assays were performed; made in house
T3 sequence (Q9BXF3 434-538 limits assumed): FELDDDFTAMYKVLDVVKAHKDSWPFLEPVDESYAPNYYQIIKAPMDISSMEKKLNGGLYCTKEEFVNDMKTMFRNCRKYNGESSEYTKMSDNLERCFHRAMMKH
Experimental: as §1, §2, §3, §4, §5, §6, §7

[4] = Aqueous stability by 1H NMR in D2O time course; type: physicochemical
Source text: Compounds were synthesized by the routes shown in Scheme 1. Amidation of 2-aminobenzamide 2 with 4-chlorobutanoyl chloride[29] gave amide 3, which could be cyclized to the 2,3-dihydropyrrolo[1,2-a]quinazolin-5(1H)-one core 4 using potassium tert-butoxide. The isomer was confirmed on the basis of NOE correlations and subsequent crystallography. The weak nucleophilicity of the core was then exploited by reacting compound 4 with substituted N,N-dialkylformamides using Vilsmeier–Haack conditions, giving analogues incorporating nitrogen-based aliphatic side chains solely as the E regioisomer. This chemistry was unsuitable for piperazine-based formamides. For these side chains, analogues 12–15 were synthesized as single regioisomers by displacement of the dimethylamino group in 5 using cyclic secondary amines and DMAP catalysis. Due to the potential for hydrolysis of the enamine-like moiety, the aqueous stability of 5 was assessed by ^1H NMR in a D2O time course experiment and was stable for >24 h. […] Their binding to PB1(5) was assessed by the operationally simple DSF assay (Table 1). […] Six-membered aliphatic rings (10–14) were better tolerated than analogues containing six-membered aromatic side chains (see Supporting Information), likely due to their greater flexibility. However, expansion to a seven-membered ring reduced activity.

## CN(C)/C=C1\CCn2c1nc(=O)c1ccccc12 [Compound 5, (E)-3-((Dimethylamino)methylene)-2,3-dihydropyrrolo[1,2-a]quinazolin-5(1H)-one]
[1]
  BRPF1B Tm: 0.1 °C
[2]
  BRD9A Tm: 0.2 °C
[3]
  CECR2A Tm: 0.1 °C
[4]
  aqueous stability: > 24 h
